Experimental data published in patent US20030134859A1 (SANKYO COMPANY, LIMITED, priority 2000, published 2003).

Legend:
[1] = tested on: human colon cancer cells COL-2-JCK; assay: Inhibition of colony forming activity in human colon cancer cells; assay type: cell-based; details: 1 μM test compound, 10 days, sum of colony areas vs control; for inhibition at 1 µM: Homo sapiens, 240 h, read-out: Inhibition Rate (%) against the colony forming activity
Experimental: For the medium to culture the human colon cancer cells, D-MEM/F-12 medium containing inactivated bovine fetal serum at a concentration of 10% (GIBCO) was used. The human colon cancer cells COL-2-JCK (purchased from Institute for Experimental Animals) grown in mass formation in a plastic dish for the cell culture with an inner diameter of 100 mm were stripped off from the dish by using EDTA (ethylenediaminetetraacetic acid) and 0.05% trypsin solution. Then, a cell dilution solution was prepared at a concentration of 100 cells/mL solution which was diluted with the medium (D-MEM/F-12).
Three (3) mL of the cell solution were inoculated in each well of a 6-well plastic plate (300 cells/well). The test compound that was dissolved in DMSO solution so as to be a final concentration of 1 μM of the test compound and that of DMSO solution of 0.1% was added to each well. DMSO solution alone was added into the well for the control so as to be a final concentration of 0.1%.
The cells in each well were cultured for 10 days at 37° C. in the presence of 5% CO2. After the culturing was finalised, each well was washed once with Dulbecco-phosphate-buffer-saline solution (bivalent anion). Then, 1.5 ml of neutral buffered formalin solution containing 0.02% crystal violet was added to each well and the plate was kept stationary for 5 min for fixation and staining the cells. After fixation and staining, the cells were washed with water and were air-dried. Then the sum of the colony area (mm^2) of the stained cancer cells was calculated by using an image analyzer PCA-11 (SystemScience). From the calculated values, the inhibition rate (%) of the compound against the colony forming activity was obtained based on the following equation.
Inhibition Rate (%) against the colony forming activity=(1−A/B)×100
A: Sum of Colony Areas in the Group Treated with 1 μM of the Test Compound
B: Sum of Colony Areas in the Control Group

[2] = tested on: Mouse preadipocyte strain 3T3-L1; assay: Inhibition of differentiation as an indication of acetic acid uptake; assay type: cell-based; details: control (0.01% dimethylsulfoxide) = 100%; for activity at 0.1 µM: Mus musculus, 3T3-L1, 0.1 μM test substance, read-out: Rate of Uptake (%) of [2-14C] acetic acid; for Rate of Uptake (%) of [2-14C] acetic acid: 0.1 μM test substance
Method in brief: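 Differentiation is indexed by 1 hr [2-14C]acetic acid incorporation, measured by scintillation counting and given as uptake relative to 0.01% DMSO control (100%). Mouse 3T3-L1 preadipocytes, pre-grown 10 days, received 0.1 μM test substance throughout a 4-day insulin/IBMX/dexamethasone induction, followed by 2 days' maintenance culture.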

Rat white adipocytes [3] = assay: Stimulation of differentiation of the adipocytes (Oil Red O); assay type: cell-based; details: 100 nM test compound, 5 days, Oil Red O ABS550, control = 100%, blank = 0%, Table 7; for activity at 0.1 µM: Rattus norvegicus, Adipocyte, 120 h, read-out: Rate of Differentiation (%)
Method in brief: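 Oil Red O lipid staining, absorbance 550 nm after DMSO extraction, quantified differentiation of rat white adipocytes exposed 5 days to compound (final 100 nM, 0.1% DMSO) in differentiation medium. Percent differentiation normalised between cell-free blank (0%) and DMSO control (100%).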

TNF-α production = assay: Inhibitory activity against cytokine (TNF-α) production in LPS-stimulated RAW264.7 cells; assay type: cell-based, mouse; details: Mus musculus, RAW264.7, 15 h, 1 μM test compound, LPS 10 ng/mL
Experimental: The mouse monocyte/macrophage cell line, RAW264.7 (ATCC TIB71) was purchased from Dainippon Pharmaceutical Co., Ltd. The RAW264.7 cells were cultured in a CO2 incubator (37° C., 95% of humidity, 5% of CO2) by using the Dulbecco's modified Eagle's medium (DMEM medium; GIBCO, Cat. No. 11995-040) containing bovine fetal serum (the final concentration: 10% (v/v), MOREGATE, lot No. 474030), penicillin G (the final concentration: 50 units/mL […], GIBCO) and streptomycin (the final concentration: 20 μg/mL, GIBCO).
Sixty (60) μL of the RAW264.7 cell suspension (83,000 cells/mL) were plated into each well of a 96-well microplate (5,000 cells/well). After the cells were cultured for 4 hr in a CO2 incubator, 40 μL of DMEM medium containing 25 ng/mL of LPS (Sigma-Aldrich Japan K. K.) were added into each well (final concentration of LPS: 10 ng/mL). The test compound dissolved in DMSO at a concentration of 1 mM was diluted with DMEM medium by 20 times. Then 2 μL/well of the diluted solution were added to wells containing the plated cells (final concentration of the test compound: 1 μM). As the control, 2 μL/well of DMSO diluted with DMEM medium by 20 times were added to wells containing the plated cells either with LPS (final concentration: 10 ng/mL) or without LPS. After these cells were cultured in a CO2 incubator for 15 hr, the supernatant of the medium was recovered. The amount of mTNF-α in the medium supernatant was determined with a mouse TNF-α ELISA kit Quantikine M (R&D System), according to the experiment protocol attached with the kit.
The inhibitory activity of the test compound against TNF-α production was calculated according to the following equation.
A: The amount of TNF-α in the presence of test compound
B: The amount of TNF-α in the control without LPS
C: The amount of TNF-α in the control with 10 ng/mL of LPS
Inhibitory Activity of the Test Compound against TNF-α Production (%)=100−(A−B)/(C−B)×100

leptin production = assay: Enhancing activity for leptin production in adipocytes (ELISA); assay type: cell-based, rat; details: 24 hr, leptin concentration as % of control group
Method in brief: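 Leptin release, quantified by rat leptin ELISA, expressed as percent of 0.1% DMSO control after 24 h at 37 °C. Cells were floating adipocytes isolated by collagenase digestion of epididymal fat from male 6-week Wistar Imamichi rats; compound tested at 1 nM–1 µM final.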

Rat white adipocytes [4] = assay: Inhibition of the differentiation of adipocytes (Oil Red O); assay type: cell-based; details: Rattus norvegicus, Adipocyte, 120 h, 100 nM test compound; 5 days; Oil Red O ABS550; control = 100%, blank = 0%; Table 3; read-out: Rate of Differentiation (%)
Method in brief: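 Rat white preadipocytes, 5,000 cells/well, given differentiation medium with compound at 100 nM final (0.1% DMSO) for 5 days at 37 °C. Lipid stained with Oil Red O, eluted in DMSO, read at 550 nm; differentiation % relative to DMSO control (100%) and blank (0%).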

| Structure (SMILES) | inhibition at 1 µM [1] | activity at 0.1 µM [2] | activity at 0.1 µM (Rat white adipocytes [3]) | other results |
| --- | --- | --- | --- | --- |
| Cc1cccc(NC(=O)c2cc([N+](=O)[O-])ccc2Cl)c1 [Example 11, N-(3-Methylphenyl)-(2-chloro-5-nitrophenyl)carboxamide] | 15% | 67.3% | – | – |
| CCc1cccc(NC(=O)c2cc([N+](=O)[O-])ccc2Cl)c1 [Example 14, N-(3-Ethylphenyl)-(2-chloro-5-nitrophenyl)carboxamide] | 16% | 82.1% | 121% | – |
| CCCCOc1ccc(NC(=O)c2cc([N+](=O)[O-])ccc2Cl)cc1 [Example 17, N-(4-Butyloxyphenyl)-(2-chloro-5-nitrophenyl)carboxamide] | 30% | 91.9% | 114% | – |
| O=C(Nc1nc2ccccc2s1)c1cc([N+](=O)[O-])ccc1Cl [Example 33, N-(Benzothiazol-2-yl)-(2-chloro-5-nitrophenyl)carboxamide] | 60% | 86.1% | 127% | – |
| CC(C)(C)OC(=O)Nc1ccc(NC(=O)c2cc([N+](=O)[O-])ccc2Cl)cc1 [Example 45, N-[4-(tert-Butyloxycarbonylaminophenyl)]-(2-chloro-5 nitrophenyl)carboxamide] | – | – | – | Inhibition Rate (%) against the colony forming activity [1]: 32.0%; Rate of Uptake (%) of [2-14C] acetic acid [2]: 68.9% |
| O=C(Nc1cccc2ncccc12)c1cc([N+](=O)[O-])ccc1Cl [Example 56, N-(5-Quinolinyl)-(2-chloro-5-nitrophenyl)carboxamide] | 6% | 32.4% | 114% | – |
| COc1ccc2nc(NC(=O)c3cc([N+](=O)[O-])ccc3Cl)sc2c1 [Example 67, N-(6-Methoxybenzothiazol-2-yl)-(2-chloro-5-nitrophenyl)carboxamide] | 31% | 70.2% | – | inhibition at 1 µM (TNF-α production): 23.2% |
| O=C(Nc1nc2c(Cl)cccc2s1)c1cc([N+](=O)[O-])ccc1Cl [Example 69, N-(4-Chlorobenzothiazol-2-yl)-(2-chloro-5-nitrophenyl)carboxamide] | 84% | 57% | 135% | – |
| O=C(Nc1cc(-c2ccccc2)[nH]n1)c1cc([N+](=O)[O-])ccc1Cl [Example 72, N-(5-Phenylpyrazol-3-yl)-(2-chloro-5-nitrophenyl)carboxamide] | 39% | 76.7% | 124% | – |
| O=C(Nc1ccc(S(=O)(=O)Nc2ncccn2)cc1)c1cc([N+](=O)[O-])ccc1Cl [Example 95, N-[4-[(Pyrimidin-2-yl)aminosulfonyl]phenyl]-(2-chloro-5-nitrophenyl)carboxamide] | 1% | 86.3% | 115% | – |
| Cc1cc(NS(=O)(=O)c2ccc(NC(=O)c3cc([N+](=O)[O-])ccc3Cl)cc2)nc(C)n1 [Example 98, N-[[4-(2,6-Dimethylpyrimidin-4-yl)aminosulfonyl]phenyl]-(2-chloro-5-nitrophenyl)carboxamide] | – | – | – | Inhibition Rate (%) against the colony forming activity [1]: 25.0%; Rate of Uptake (%) of [2-14C] acetic acid [2]: 89.1%; Facilitating activity to produce leptin (leptin production; 1 μM): 117.0%; Facilitating activity to produce leptin (leptin production; 100 nm): 110.1% |
| O=C(Nc1ccc(S(=O)(=O)Nc2ccccn2)cc1)c1cc([N+](=O)[O-])ccc1Cl [Example 100, N-[4-[(Pyridin-2-yl)aminosulfonyl]phenyl]-(2-chloro-5-nitrophenyl)carboxamide] | 50% | – | – | – |
| COC(=O)c1cccc(NC(=O)c2cc([N+](=O)[O-])ccc2Cl)c1 [Example 143, Methyl 3-(2-chloro-5-nitrobenzoylamino)benzoate] | 25% | 60.1% | – | activity at 0.1 µM (Rat white adipocytes [4]): 84.9% |
| Cl.O=C(Nc1ccc(-c2ccccn2)cc1)c1cc([N+](=O)[O-])ccc1Cl [Example 147, N-[4-(Pyridin-2-yl)phenyl]-(2-chloro-5-nitrophenyl)carboxamide Hydrochloride] | 19% | – | – | Rate of Uptake (%) of [2-14C] acetic acid [2]: 76.2%; Rate of Differentiation (%) (Rat white adipocytes [3]): 115.5% |
